Results as given in patent US11124881B2, “Hydrophilic metal surface treatment agent” (CHEMICAL DENSHI CO., LTD., priority 2019, dated 2021).

Assay: Water-solubility test
Assay type: physicochemical
Description: The hydrophilic metal surface treatment agent (Compound 21) (MW 608.86, 0.32 g) produced in Example 3 was added to ultrapure water (50.09 g), and the mixture was stirred after the water temperature was heated to 60° C.
With respect to even the hydrophilic metal surface treatment agent having an octadecyl group, i.e. n-C18H37, as a long chain hydrocarbon group, an aqueous solution having a concentration of 10.32 mM could be prepared.

Structure (SMILES): CCCCCCCCCCCCCCCCCCSC(=O)CCC(=O)NC(COC(COC(CO)CO)COC(CO)CO)COC(COC(CO)CO)COC(CO)CO [Compound 21]
- visible undissolved residue (0.32 g in ultrapure water 50.09 g, stirred at 60° C., after 3 hours): no visible undissolved residue
- concentration of aqueous solution that could be prepared (ultrapure water, 60° C., no surfactant or solubilizing agent): 10320 µM
